Like-named read-outs stand apart in the source and are kept apart here.

For data set [1], the system named is NB4 AML cells. As to the kind of experiment: AML cell killing with NK cells, Annexin V viable cell count at 72 h (IC50 and Chou-Talalay synergy). Type of data set: cell-based. Here is the method:
(§1) Initially, cells from each AML cell line were treated with decitabine, cusatuzumab or venetoclax alone to determine the IC50 for each treatment. 10^5 AML cells were treated with a concentration range of cusatuzumab (0.1, 1.0 and 10 μg/ml), venetoclax (0.5 and 200 nM), decitabine (0.01-1 μM) or vehicle in the presence of CFSE-labelled NK cells derived from healthy individuals (ratio 1:1). The assay was performed in triplicate.
(§2) To determine synergy, a constant combination ratio experiment was carried out at equipotency ratio (IC501/IC502, or IC501/IC502/IC503) so that each drug contributed equally to cell killing. Combination drug dose responses were assessed in two technical replicates for every dose/dose combination as previously described (Riether et al., Sci Transl Med (2015) 7(298); 298ra119.
(§3) NOMO-1, MOLM-13, NB-4 or MV4-11 AML cell lines were treated with vehicle, decitabine, cusatuzumab or venetoclax alone, a double combination of venetoclax and decitabine, decitabine and cusatuzumab, or venetoclax and cusatuzumab, or a triple combination of decitabine, cusatuzumab and venetoclax. All combinations were tested at three high and three low concentrations (above and below the identified IC50s) and in a constant ratio. Cells were cultured in the presence of CFSE-labeled NK cells (ratio 1:1). Viable AML cell numbers were assessed 72 hours later by Annexin V staining, and the effect of drug treatment was calculated as the ratio of surviving cells to vehicle-treated cells.
(§4) The Combination Index (CI) was calculated and plotted against Fraction affected (Fa) using CompuSyn software. The resultant plot of the combination index (CI) against fraction affected (Fa) for all combinations is shown in FIG. 1, with the individual combinations shown in FIGS. 2A-2D.
(§5) Fa values of 0, 0.5, and 1 correspond to 0, 50, and 100% killed cells. A CI of <1, 1, >1 represents synergism, additivity, and antagonism, respectively. IC50s indicates Fa values reached for the combination of respective IC50 concentrations. The principles and advantages of the Fa-CI plot method of assessing synergism are provided in, for example, Chou T C, Cancer Research (2010) 70(2); 440-6 and Zhao et al. Front Biosci (Elite Ed). (2010) 2; 241-249 (each of which is incorporated herein by reference in its entirety).

In data set [2] the test system is MOLM-13 AML cells. Described as above. The format is cell-based. The following applies: Homo sapiens. Here is the method: as §1, §2, §3, §4, §5
The subject of data set [3] is MV4-11 AML cells. Described as above. Type of data set: cell-based. The following applies: Homo sapiens. Here is the method: as §1, §2, §3, §4, §5
The test system of data set [4] is NOMO-1 AML cells. The data set is described as above. Type of data set: cell-based. To be noted: Homo sapiens. Here is the method: as §1, §2, §3, §4, §5
The conditions of data set [5]: cited from earlier work.
Data set [6] concerns CD70 expression. The data set can be described thus: CD70 mRNA and protein expression in AML cells. The format is cell-based. To be noted: AML cells (MOLM-13, NOMO-1) in the presence of venetoclax. Here is the method:
FIG. 9: CD70 mRNA expression (as percentage of housekeeping gene) following treatment with vehicle (Veh) or venetoclax (Ven) for 24 or 48 hrs.
FIG. 10: CD70 protein and mRNA expression by MOLM-13 and NOMO-1 cells in the presence (gray bars) and absence (black bars) of venetoclax. Significance was determined using a Student's t-test. MFI=mean fluorescence intensity. *** P<0.001.
The effect of venetoclax on expression of CD70 at both the mRNA and protein level was assessed.

For data set [7], the target named is T1, CD70 (Homo sapiens, UniProt P32970).
T1 sequence (P32970 1-193): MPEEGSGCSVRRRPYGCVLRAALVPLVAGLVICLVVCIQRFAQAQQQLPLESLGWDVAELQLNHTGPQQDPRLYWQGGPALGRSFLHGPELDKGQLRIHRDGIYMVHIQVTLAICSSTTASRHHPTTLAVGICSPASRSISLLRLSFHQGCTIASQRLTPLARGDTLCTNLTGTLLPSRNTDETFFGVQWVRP
The following applies: Silence et al. (2014); cited from earlier work.

Data set [8] has as its system CD70-expressing tumour cells. To be noted: Silence et al. (2014); cited from earlier work.
Data set [9] has as its system CD27 signalling. The following applies: cited from earlier work.

As to `Nc1ncn([C@H]2C[C@H](O)[C@@H](CO)O2)c(=O)n1` [decitabine], the IC50 (commonly the midpoint of a concentration-inhibition curve) in [1] turned out to be 4.8 nM; in data set [2] (MOLM-13), 0.01 nM; in data set [3] (MV4-11), 2.36 nM; in data set [4] (NOMO-1) it was 0.001 nM.

For `CC1(C)CCC(CN2CCN(c3ccc(C(=O)NS(=O)(=O)c4ccc(NCC5CCOCC5)c([N+](=O)[O-])c4)c(Oc4cnc5[nH]ccc5c4)c3)CC2)=C(c2ccc(Cl)cc2)C1` [venetoclax, 4-(4-{[2-(4-chlorophenyl)-4,4dimethylcyclohex-1-en-1-yl]methyl}piperazin-1-yl)-N-({3-nitro-4-[(tetrahydro-2H-pyran-4ylmethyl)amino]phenyl}sulfonyl)-2-(1H-pyrrolo[2,3-b]pyridin-5-yloxy)benzamide], the Aqueous solubility result in data set [5] is “very low aqueous solubility”. Also, the half-maximal inhibitory concentration (IC50) in data set [1] (NB4, monotherapy, NK cells ratio 1:1, read-out: IC50) was 17.3 nM; in data set [2] (MOLM-13, monotherapy, NK cells ratio 1:1, read-out: IC50), 0.42 nM; in data set [3] (MV4-11, monotherapy, NK cells ratio 1:1, read-out: IC50) it was 5 nM; in data set [4] (NOMO-1, monotherapy, NK cells ratio 1:1, read-out: IC50), 3.4 nM. For the same molecule, in [6], the “CD70 expression (mRNA and protein)” value is on record as “up-regulated”.

B1: cusatuzumab: IgG1 anti-CD70 antibody, ADCC-enhanced humanized monoclonal; VH SEQ ID NO: 4, VL SEQ ID NO: 8 (antibody, V domains shown)
VH: EVQLVESGGGLVQPGGSLRLSCAASGFTFSVYYMNWVRQAPGKGLEWVSDINNEGGTTYYADSVKGRFTISRDNSKNSLYLQMNSLRAEDTAVYYCARDAGYSNHVPIFDSWGQGTLVTVSS
VL: QAVVTQEPSLTVSPGGTVTLTCGLKSGSVTSDNFPTWYQQTPGQAPRLLIYNTNTRHSGVPDRFSGSILGNKAALTITGAQADDEAEYFCALFISNPSVEFGGGTQLTVLG
Consider B1, for which the “Interaction of CD70 with CD27” value in data set [7] was “inhibit the interaction of CD70 with its receptor CD27”. For the same molecule, in [8], the “Lysis of CD70-expressing tumour cells via ADCC and CDC” value is on record as “lyse CD70-expressing tumour cells”. Also, the “CD70-induced CD27 signalling” value in data set [9] is “inhibit CD70-induced CD27 signalling”.

The values above are taken from patent US11712468B2, “CD70 combination therapy” (Argenx BV, priority 2018, dated 2023).
